Source: ChEMBL document CHEMBL4007392, “Modulating Mineralocorticoid Receptor with Non-steroidal Antagonists. New Opportunities for the Development of Potent and Selective Ligands without Off-Target Side Effects” (J Med Chem, 2017)

How the values were obtained:
Rattus norvegicus [1] = assay: In vivo antagonist activity at MR in rat assessed as inhibition aldosterone-induced decrease in urinary sodium/potassium ratio at 30 mg/kg, po after 8 hrs; assay type: functional
Rattus norvegicus [2] = assay: In vivo antagonist activity at MR in rat assessed as inhibition aldosterone-induced decrease in urinary sodium/potassium ratio at 3 mg/kg, po after 20 hrs; assay type: functional
Homo sapiens = species on record: Homo sapiens; assay: Ratio of IC50 for Gal4-fused human AR expressed in CHO-K1 cells to IC50 for Gal4-fused human MR expressed in CHO-K1 cells; assay type: cell-based
[3] = molecular target: T1, Mineralocorticoid receptor (Homo sapiens, UniProt P08235); assay: Antagonist activity at Gal4-fused human MR LBD (734 to 985 residues) expressed in CHO-K1 cells after 5 to 6 hrs by luciferase reporter gene assay; assay type: cell-based
T1 sequence (P08235 whole entry): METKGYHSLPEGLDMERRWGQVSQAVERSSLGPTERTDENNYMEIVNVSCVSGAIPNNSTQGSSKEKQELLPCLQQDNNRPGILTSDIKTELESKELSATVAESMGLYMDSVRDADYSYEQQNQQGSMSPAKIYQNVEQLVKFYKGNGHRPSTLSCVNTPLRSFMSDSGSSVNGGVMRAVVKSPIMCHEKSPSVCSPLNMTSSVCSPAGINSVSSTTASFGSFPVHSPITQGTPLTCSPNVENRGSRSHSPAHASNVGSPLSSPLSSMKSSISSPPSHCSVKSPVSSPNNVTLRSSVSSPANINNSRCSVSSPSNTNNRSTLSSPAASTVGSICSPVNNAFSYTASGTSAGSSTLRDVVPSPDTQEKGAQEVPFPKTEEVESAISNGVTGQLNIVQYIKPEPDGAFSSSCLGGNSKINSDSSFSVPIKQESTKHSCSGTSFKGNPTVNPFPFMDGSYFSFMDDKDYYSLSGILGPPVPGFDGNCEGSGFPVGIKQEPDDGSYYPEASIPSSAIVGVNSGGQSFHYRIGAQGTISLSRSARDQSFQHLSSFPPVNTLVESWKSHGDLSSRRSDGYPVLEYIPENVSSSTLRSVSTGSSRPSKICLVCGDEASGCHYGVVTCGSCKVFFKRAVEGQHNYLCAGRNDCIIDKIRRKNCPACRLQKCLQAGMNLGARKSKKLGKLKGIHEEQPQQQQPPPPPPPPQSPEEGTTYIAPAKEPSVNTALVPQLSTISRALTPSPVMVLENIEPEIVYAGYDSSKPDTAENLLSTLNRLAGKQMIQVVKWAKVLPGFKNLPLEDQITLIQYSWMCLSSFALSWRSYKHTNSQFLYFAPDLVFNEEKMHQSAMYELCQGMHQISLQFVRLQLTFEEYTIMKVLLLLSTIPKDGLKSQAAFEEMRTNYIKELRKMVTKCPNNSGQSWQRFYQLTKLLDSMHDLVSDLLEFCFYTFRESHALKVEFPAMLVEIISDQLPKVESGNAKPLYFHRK

Rattus norvegicus [4] = assay: In vivo antagonist activity at MR in rat assessed as inhibition aldosterone-induced decrease in urinary sodium/potassium ratio at 30 mg/kg, po after 20 hrs; assay type: functional
[5] = molecular target: T1, Mineralocorticoid receptor; assay: Antagonist activity at human MR overexpressed in HEK293 cells assessed as inhibition of aldosterone-induced response measured after overnight incubation by luciferase reporter gene assay; assay type: cell-based
[6] = molecular target: T1, Mineralocorticoid receptor; assay: Displacement of [3H]-Aldosterone from MR overexpressed in human 293 cells measured after 2 hrs by Microbeta scintillation counting method; assay type: cell-based
[7] = molecular target: T1, Mineralocorticoid receptor; assay: Antagonist activity at Gal4-fused human MR LBD (672 to 984 residues) expressed in HEK293T cells assessed as inhibition of aldosterone-induced transactivation activity after 24 hrs by luciferase reporter gene assay; assay type: cell-based, HEK-293T
[8] = molecular target: T1, Mineralocorticoid receptor; assay: Displacement of [3H]-cortisol from MR overexpressed in human 293 cells measured after 2 hrs by Microbeta scintillation counting method; assay type: cell-based

Structure (SMILES): COC(=O)[C@@H]1CC2=CC(=O)CC[C@]2(C)[C@@]23O[C@@H]2C[C@@]2(C)[C@@H](CC[C@@]24CCC(=O)O4)[C@H]13 [EPLERENONE]
- inhibition in vivo at 30 mg/kg (Rattus norvegicus [1]): 8%

Structure (SMILES): Cc1c(C(=O)Nc2ccc(S(C)(=O)=O)cc2)cn(CCO)c1-c1ccccc1C(F)(F)F (single isomer, unassigned; atropisomer 2)
- inhibition in vivo at 3 mg/kg (Rattus norvegicus [2]): 56%

Structure (SMILES): CCOC(=O)C1=C(C)NC(C)=C(C(C)=O)[C@H]1c1cccc2c(=O)cc(C)oc12
- Ratio IC50 (Homo sapiens): 160
- IC50 [3]: 28 to 43 nM

Structure (SMILES): CC(=O)S[C@@H]1CC2=CC(=O)CC[C@]2(C)[C@H]2CC[C@@]3(C)[C@@H](CC[C@@]34CCC(=O)O4)[C@H]12 [SPIRONOLACTONE]
- inhibition in vivo at 30 mg/kg (Rattus norvegicus [4]): < 20%

Structure (SMILES): C[C@H](CN1CCOCC1)n1/c(=N\C#N)[nH]c2cc(/C=C3\c4ccccc4COc4cc(F)ccc43)ccc21
- IC50 [5]: 21 nM
- Ki [6]: 0.4 nM

Structure (SMILES): CC(=O)Oc1ccc(CCc2ccc3c(c2)NC(=O)CO3)c(C)c1
- IC50 [7]: < 2 nM

Structure (SMILES): O=c1[nH]c2cc(/C=C3\c4ccccc4COc4cc(F)ccc43)ccc2n1[C@@H]1C[C@@H]2COCCN2C1
- Ki [8]: 9 nM
